According to patent US20250051344A1, “BIFUNCTIONAL SELECTIVE DEGRADERS OF SMARCA2 AND THERAPEUTIC USES THEREOF” (Nurix Therapeutics, Inc., priority 2023, published 2025):

What was measured:
[1] = molecular target: T1, SMARCA2 (Homo sapiens, UniProt P51531); experiment: SMARCA2 Cellular Degradation Assay (Western blot analysis on Jess platform); format: cell-based; conditions: for DC50 / Dmax: cellular degradation; for Fold Selectivity SMARCA4/2: ratio DC50 SMARCA4 / DC50 SMARCA2
T1 construct: endogenous in cells
Experimental: SMARCA2 Cellular Degradation Assay
Western Blot Analysis for SMARCA2 Degradation
Frozen cell pellets were thawed on ice and resuspended in RIPA lysis buffer (Millipore, Cat. No. 20-188) supplemented with 0.2% SDS (Fisher Scientific, Cat. No. 24730020), 200 mM β-glycerophosphate (Alfa Aesar, Cat. No. J62121), 500 mM NaF (Rigaku, Cat. No. 1008046), protease inhibitor (1 tablet per 10 mL, Sigma, Cat. No. 11836170001), 250 U/μL benzonase (Millipore, Cat. No. 71206), 200 mM sodium orthovanadate (FivePhoton, Cat. No. ActVO-4), and 100 mM PMSF (Sigma, Cat. No. 10837091001). 50 μL lysis buffer was used to lyse each pellet containing 5×10E5-1×10E6 live cells extracted from tumors. Lysates were centrifuged for 10 mins at 20,817×g and lysate supernatants were saved for further analysis. Protein levels were determined by the BCA Assay performed according to manufacturer's protocol (EMD Millipore, Cat. No. 71285-3). Samples were evaluated by Western blot analysis on the Jess Platform (ProteinSimple). Lysates were diluted with complete lysis buffer (as described above) and 5 μg of total proteins were loaded onto each capillary. Samples were prepared using the ProteinSimple EZ Standard Pack 1 (Cat. No. PS-ST01EZ-8; containing tubes with powdered (5×) Fluorescent Master Mix, DTT, and biotinylated ladder) and run using the ProteinSimple 25-Capillary Cartridge kit (Cat. No. SM-W004; containing 25-capillary cartridge Wash reagent, and 10× Sample Buffer reagent), the ProteinSimple Anti-Rabbit HRP Detection Module for Jess (Cat. No. DM-001; containing Antibody Diluent, anti-rabbit secondary antibody, Luminol-S, Peroxide, and Streptavidin-HRP), and the ProteinSimple Anti-Mouse NIR Detection Module for Jess (Cat. No. DM-009; containing Antibody Diluent, anti-mouse NIR secondary antibody, and Streptavidin-NIR) as the following describes. The DTT was reconstituted with 40 μL water to make a 400 mM solution, 20 μL of the DTT solution plus 20 μL of 10× Sample Buffer were added to reconstitute the 5× Fluorescent Master Mix, and 20 μL of H2O was used to reconstitute the biotinylated ladder. For each sample, lysate (4 μL) was combined with 5× Fluorescent Master Mix (1 μL) and heated at 95° C. for 5 minutes. Samples were cooled and stored on ice. Primary antibody solution was made using anti-SMARCA2 antibody (Abcam, Cat. No. 240648, 1:10) and anti-beta-Actin antibody (Cell Signaling Technology, Cat. No. 3700S, 1:25) in antibody diluent. The 25-capillary cartridges were prepared per standard ProteinSimple protocol with each sample in a column. For the biotinylated ladder in column 1, the following were added: 5 µL of ladder sample in Row A, 10 μL of antibody diluent in Rows B and C, 10 μL of Streptavidin-NIR in Row D, and 15 μL of a 50:50 Luminol-s/Peroxide solution in Row E. For each test sample (columns 2-25), the following were added per column: 5 μL of sample in Row A, 10 μL of antibody diluent in Row B, 10 μL of primary antibody solution in Row C, 10 μL of secondary antibody in Row D, and 15 μL of a 50:50 Luminol-S/Peroxide solution in Row E. 500 μL wash buffer was added to the wash buffer wells in the cartridge and cartridge was spun at 1000×g for 5 minutes prior to loading into the Jess. Samples were run using the Chemiluminescence and Fluorescence immunoassays in the ProteinSimple Compass for SimpleWestern program (version 5.0.0). After running, SMARCA2, actin, and background curves were identified in the Compass software; note that in the Compass software, the electropherograms are also visualized as bands for comparison with standard Western blot outputs. The electropherogram area reading for each sample curve was normalized to that of the corresponding actin curve per column following background (capillary background) subtraction using the following equation: […]
Following normalization, the percentage of SMARCA2 remaining per sample relative to the vehicle control was calculated as follows: […]

[2] = molecular target: T2, SMARCA4 (Homo sapiens, UniProt P51532); experiment: Cellular degradation assay, SMARCA4 (Table 1); format: cell-based
T2 construct: endogenous in cells
T2 sequence (P51532 whole entry, species assumed): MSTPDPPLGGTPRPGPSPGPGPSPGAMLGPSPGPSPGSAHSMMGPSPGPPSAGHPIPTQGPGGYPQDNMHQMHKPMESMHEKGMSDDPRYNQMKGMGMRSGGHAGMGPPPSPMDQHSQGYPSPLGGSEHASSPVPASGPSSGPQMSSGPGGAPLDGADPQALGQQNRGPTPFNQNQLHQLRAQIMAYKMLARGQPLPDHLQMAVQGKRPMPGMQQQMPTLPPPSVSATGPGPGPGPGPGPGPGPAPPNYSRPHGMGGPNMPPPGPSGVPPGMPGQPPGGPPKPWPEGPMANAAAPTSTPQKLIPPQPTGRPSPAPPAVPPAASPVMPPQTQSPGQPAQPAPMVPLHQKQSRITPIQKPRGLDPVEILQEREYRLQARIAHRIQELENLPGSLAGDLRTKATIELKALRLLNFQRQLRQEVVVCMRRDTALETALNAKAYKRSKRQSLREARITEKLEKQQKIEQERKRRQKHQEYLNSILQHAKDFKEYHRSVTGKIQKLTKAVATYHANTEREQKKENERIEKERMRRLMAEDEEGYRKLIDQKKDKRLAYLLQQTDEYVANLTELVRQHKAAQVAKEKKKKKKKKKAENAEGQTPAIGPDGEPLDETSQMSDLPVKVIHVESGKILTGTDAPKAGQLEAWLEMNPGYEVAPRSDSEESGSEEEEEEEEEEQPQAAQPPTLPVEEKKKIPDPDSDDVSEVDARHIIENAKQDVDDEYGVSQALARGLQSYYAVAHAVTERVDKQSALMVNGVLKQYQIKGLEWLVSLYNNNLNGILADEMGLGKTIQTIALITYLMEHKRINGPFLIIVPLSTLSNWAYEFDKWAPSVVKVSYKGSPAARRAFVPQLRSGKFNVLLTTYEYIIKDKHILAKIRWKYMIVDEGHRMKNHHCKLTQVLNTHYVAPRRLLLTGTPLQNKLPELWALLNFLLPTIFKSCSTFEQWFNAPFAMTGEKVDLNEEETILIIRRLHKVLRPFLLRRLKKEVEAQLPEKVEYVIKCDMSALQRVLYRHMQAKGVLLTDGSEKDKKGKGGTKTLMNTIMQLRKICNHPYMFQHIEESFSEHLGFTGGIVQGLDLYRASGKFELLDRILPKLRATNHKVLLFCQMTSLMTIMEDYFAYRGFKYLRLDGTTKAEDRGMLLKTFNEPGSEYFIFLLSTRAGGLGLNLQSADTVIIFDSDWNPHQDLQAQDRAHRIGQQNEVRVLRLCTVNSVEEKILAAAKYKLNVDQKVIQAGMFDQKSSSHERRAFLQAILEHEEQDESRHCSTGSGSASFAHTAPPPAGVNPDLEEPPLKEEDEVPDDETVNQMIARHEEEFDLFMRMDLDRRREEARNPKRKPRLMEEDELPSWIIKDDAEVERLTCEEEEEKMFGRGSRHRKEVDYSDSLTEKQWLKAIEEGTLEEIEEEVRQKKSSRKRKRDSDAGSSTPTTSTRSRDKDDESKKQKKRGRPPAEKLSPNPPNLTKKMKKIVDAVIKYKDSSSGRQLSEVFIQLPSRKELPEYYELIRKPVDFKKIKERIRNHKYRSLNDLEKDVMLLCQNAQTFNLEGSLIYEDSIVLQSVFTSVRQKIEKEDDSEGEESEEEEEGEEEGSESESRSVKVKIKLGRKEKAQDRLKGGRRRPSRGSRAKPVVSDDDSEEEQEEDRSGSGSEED

T1 sequence (P51531 whole entry, species assumed): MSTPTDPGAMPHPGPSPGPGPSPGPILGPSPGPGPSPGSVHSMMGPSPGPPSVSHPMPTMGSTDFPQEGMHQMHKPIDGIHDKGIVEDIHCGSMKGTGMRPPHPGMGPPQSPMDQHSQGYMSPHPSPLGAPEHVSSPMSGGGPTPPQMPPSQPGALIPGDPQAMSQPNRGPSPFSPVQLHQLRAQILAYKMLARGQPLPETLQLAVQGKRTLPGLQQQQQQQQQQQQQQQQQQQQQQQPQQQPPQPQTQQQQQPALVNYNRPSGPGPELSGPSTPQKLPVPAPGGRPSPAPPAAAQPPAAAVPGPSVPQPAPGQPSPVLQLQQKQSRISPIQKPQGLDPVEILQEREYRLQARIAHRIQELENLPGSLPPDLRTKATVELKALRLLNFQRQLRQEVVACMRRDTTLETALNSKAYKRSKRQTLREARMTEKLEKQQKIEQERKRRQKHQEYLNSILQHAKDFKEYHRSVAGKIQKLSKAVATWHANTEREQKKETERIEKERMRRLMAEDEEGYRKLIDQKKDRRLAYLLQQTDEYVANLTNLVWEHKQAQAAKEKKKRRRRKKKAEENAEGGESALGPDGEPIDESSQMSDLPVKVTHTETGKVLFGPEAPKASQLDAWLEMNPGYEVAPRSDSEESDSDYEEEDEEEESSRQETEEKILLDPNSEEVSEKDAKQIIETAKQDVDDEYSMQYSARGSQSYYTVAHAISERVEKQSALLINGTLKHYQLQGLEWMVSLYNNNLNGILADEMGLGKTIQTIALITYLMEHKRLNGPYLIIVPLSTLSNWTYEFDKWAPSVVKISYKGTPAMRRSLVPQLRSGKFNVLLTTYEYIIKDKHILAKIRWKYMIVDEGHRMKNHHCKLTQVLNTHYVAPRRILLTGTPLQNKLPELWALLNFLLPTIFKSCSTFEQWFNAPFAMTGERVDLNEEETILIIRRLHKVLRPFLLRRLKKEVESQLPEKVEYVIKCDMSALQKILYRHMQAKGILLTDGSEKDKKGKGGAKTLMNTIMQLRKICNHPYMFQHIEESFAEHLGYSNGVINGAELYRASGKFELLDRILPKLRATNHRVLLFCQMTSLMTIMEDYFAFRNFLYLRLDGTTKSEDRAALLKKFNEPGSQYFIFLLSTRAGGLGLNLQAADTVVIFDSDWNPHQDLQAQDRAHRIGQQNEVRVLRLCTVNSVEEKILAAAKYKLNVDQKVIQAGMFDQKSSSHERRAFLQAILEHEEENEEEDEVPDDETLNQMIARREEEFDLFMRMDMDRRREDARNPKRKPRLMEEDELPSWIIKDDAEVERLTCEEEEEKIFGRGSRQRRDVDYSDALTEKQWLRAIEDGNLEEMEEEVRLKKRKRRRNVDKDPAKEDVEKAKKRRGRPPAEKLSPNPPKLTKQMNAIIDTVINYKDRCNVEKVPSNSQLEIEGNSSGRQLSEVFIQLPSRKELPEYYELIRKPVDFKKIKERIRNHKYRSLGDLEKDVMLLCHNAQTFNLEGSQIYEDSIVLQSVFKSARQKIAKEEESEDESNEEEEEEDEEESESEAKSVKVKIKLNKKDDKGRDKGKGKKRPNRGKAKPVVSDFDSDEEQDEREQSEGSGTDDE

SMILES	DC50 [1] [nM]	Dmax [1] [%]	Fold Selectivity SMARCA4/2 [1]	Dmax [2] [%]	DC50 [2] [nM]
O=C1CC[C@H](c2ccc(N3CCC(CN4CCCC4C4CCN(C(=O)C5(c6ccccc6)CCN(c6cnnc(-c7ccccc7O)c6)CC5)CC4)CC3)cc2)C(=O)N1 (stereo partly drawn) [Example 40, (3R)-3-[4-(4-{[2-(1-{1-[6-(2-hydroxyphenyl)pyridazin-4-yl]-4-phenylpiperidine-4-carbonyl}piperidin-4-yl)pyrrolidin-1-yl]methyl}piperidin-1-yl)phenyl]piperidine-2,6-dione]	317	50.3	31.55	13.8	
CN(C(=O)C1(c2cnn(C)c2)CCN(c2cnnc(-c3ccccc3O)c2)CC1)C1CCN(C2COC3(CCN(c4ccc([C@H]5CCC(=O)NC5=O)cc4)CC3)C2)CC1 (mixture of isomers) [Example 64, N-{1-[(3RS)-8-{4-[(3R)-2,6-dioxopiperidin-3-yl]phenyl}-1-oxa-8-azaspiro[4.5]decan-3-yl]piperidin-4-yl}-1-[6-(2-hydroxyphenyl)pyridazin-4-yl]-n-methyl-4-(1-methyl-1H-pyrazol-4-yl)piperidine-4-carboxamide]	5.51	81.3	1815	30.4	
O=C1CCC(c2c(F)cc(N3CCC(CN4CC[C@@H](NC(=O)C5(c6ccccc6)CCN(c6cnnc(-c7ccccc7O)c6)CC5)CC45CCC5)CC3)cc2F)C(=O)N1 (mixture of isomers) [Example 188, N-[(8RS&)-5-[(1-{4-[(3RS)-2,6-dioxopiperidin-3-yl]-3,5-difluorophenyl}piperidin-4-yl)methyl]-5-azaspiro[3.5]nonan-8-yl]-1-[6-(2-hydroxyphenyl)pyridazin-4-yl]-4-phenylpiperidine-4-carboxamide]	1.71	90.6	143	57.8	245
CN(C(=O)C1(c2cc3ccccn3n2)CCN(c2cnnc(-c3ccccc3O)c2)CC1)C1CCN(CC2CCN(c3ccc(C4CCC(=O)NC4=O)cc3)CC2)CC1 (racemic) [Example 97, rac-N-{1-[(1-{4-[(3R)-2,6-dioxopiperidin-3-yl]phenyl}piperidin-4-yl)methyl]piperidin-4-yl}-1-[6-(2-hydroxyphenyl)pyridazin-4-yl]-N-methyl-4-{pyrazolo[1,5-a]pyridin-2-yl}piperidine-4-carboxamide]	3.14	86.6	7	65.8	20.7
O=C1CC[C@H](c2ccc(N3CCC(CN4CCC5(CC4)CN(C(=O)C4(c6ccccc6)CCN(c6cnnc(-c7ccccc7O)c6)CC4)C5)CC3)nc2)C(=O)N1 [Example 189, (3R)-3-(6-{4-[(2-{1-[6-(2-hydroxyphenyl)pyridazin-4-yl]-4-phenylpiperidine-4-carbonyl}-2,7-diazaspiro[3.5]nonan-7-yl)methyl]piperidin-1-yl}pyridin-3-yl)piperidine-2,6-dione]	1.7	93	9	81.8	15.6
COC1(C(=O)N2CC3(CN(CCC4CCN(c5ccc(C6CCC(=O)NC6=O)cc5)CC4)C3)C2)CCN(c2cnnc(-c3ccccc3O)c2)CC1 (racemic) [Example 82, rac-3-(4-(4-(2-(6-(1-(6-(2-hydroxyphenyl)pyridazin-4-yl)-4-methoxypiperidine-4-carbonyl)-2,6-diazaspiro[3.3]heptan-2-yl)ethyl)piperidin-1-yl)phenyl)piperidine-2,6-dione]	11.3	71.2	883	23.8	
O=C1CC[C@@H](c2ccc(O[C@H]3CC[C@H](CN4CC5(C4)CN(C(=O)C4(c6ccccc6)CCN(c6cnnc(-c7ccccc7O)c6)CC4)C5)CC3)cc2)C(=O)N1 (racemic) [Example 166, (3RS)-3-(4-{[(1r,4r)-4-[(6-{1-[6-(2-hydroxyphenyl)pyridazin-4-yl]-4-phenylpiperidine-4-carbonyl}-2,6-diazaspiro[3.3]heptan-2-yl)methyl]cyclohexyl]oxy}phenyl)piperidine-2,6-dione]	24.2	65.8	13	35.2	317
O=C1CCC(c2ccc(N3CCC(CN4CC5(C4)CN(C(=O)C4(Cc6ccccc6)CCN(c6cnnc(-c7ccccc7O)c6)CC4)C5)CC3)cc2)C(=O)N1 (racemic) [Example 26, rac-(3R)-3-(4-{4-[(6-{4-benzyl-1-[6-(2-hydroxyphenyl)pyridazin-4-yl]piperidine-4-carbonyl}-2,6-diazaspiro[3.3]heptan-2-yl)methyl]piperidin-1-yl}phenyl)piperidine-2,6-dione]		14.1	1	14.6	
O=C1CCC(c2ccc(N3CCC(CN4CC5(C4)CN(C(=O)C4(c6ccc(Cl)c(Cl)c6)CCN(c6cnnc(-c7ccccc7O)c6)CC4)C5)CC3)cc2)C(=O)N1 (racemic) [Example 32, rac-(3R)-3-{4-[4-({6-[4-(3,4-dichlorophenyl)-1-[6-(2-hydroxyphenyl)pyridazin-4-yl]piperidine-4-carbonyl]-2,6-diazaspiro[3.3]heptan-2-yl}methyl)piperidin-1-yl]phenyl}piperidine-2,6-dione]	71.7	63	139.55	37.2	
O=C1CCC(c2ccc(OC3CCN(C(=O)C4CCN(C(=O)C5(c6ccccc6)CCN(c6cnnc(-c7ccccc7O)c6)CC5)CC4)CC3)cc2)C(=O)N1 (racemic) [Example 13, rac-(3R)-3-(4-{[1-(1-{1-[6-(2-hydroxyphenyl)pyridazin-4-yl]-4-phenylpiperidine-4-carbonyl}piperidine-4-carbonyl)piperidin-4-yl]oxy}phenyl)piperidine-2,6-dione]		40.3	1	12.3	
O=C1CCC(c2ccc(OC3CCN(CC4CCN(C(=O)C5(c6ccccc6)CCN(c6cnnc(-c7ccccc7O)c6)CC5)CC4)CC3)cc2)C(=O)N1 (racemic) [Example 12, rac-(3R)-3-[4-({1-[(1-{1-[6-(2-hydroxyphenyl)pyridazin-4-yl]-4-phenylpiperidine-4-carbonyl}piperidin-4-yl)methyl]piperidin-4-yl}oxy)phenyl]piperidine-2,6-dione]	144	61.7	69.67	36.9	
CN(C(=O)C1(c2ccccc2)CCN(c2cnnc(-c3ccccc3O)c2)CC1)C1CCN(CCC2CCN(c3cccc4c3n(C)c(=O)n4C3CCC(=O)NC3=O)CC2)CC1 (racemic) [Example 130, rac-N-{1-[2-(1-{1-[(3r)-2,6-dioxopiperidin-3-yl]-3-methyl-2-oxo-2,3-dihydro-1H-1,3-benzodiazol-4-yl}piperidin-4-yl)ethyl]piperidin-4-yl}-1-[6-(2-hydroxyphenyl)pyridazin-4-yl]-N-methyl-4-phenylpiperidine-4-carboxamide]	0.31	96.4	28	84.4	8.72
